Test results as given in BindingDB's records for doi:10.1016/j.bmcl.2004.01.051 (Pierre and Marie Curie University, 2004).

Tests used:
[1] = target: Cyclopropane-fatty-acyl-phospholipid synthase (Escherichia coli) (UniProt P0A9H7); experiment: Inhibition constant against Escherichia coli cyclopropane fatty acid synthase
[2] = target: Cyclopropane-fatty-acyl-phospholipid synthase (Escherichia coli) (UniProt P0A9H7); experiment: as above; remark: listed apart in the source

Cyclopropane-fatty-acyl-phospholipid synthase (Escherichia coli), sequence (P0A9H7 whole entry, looked up): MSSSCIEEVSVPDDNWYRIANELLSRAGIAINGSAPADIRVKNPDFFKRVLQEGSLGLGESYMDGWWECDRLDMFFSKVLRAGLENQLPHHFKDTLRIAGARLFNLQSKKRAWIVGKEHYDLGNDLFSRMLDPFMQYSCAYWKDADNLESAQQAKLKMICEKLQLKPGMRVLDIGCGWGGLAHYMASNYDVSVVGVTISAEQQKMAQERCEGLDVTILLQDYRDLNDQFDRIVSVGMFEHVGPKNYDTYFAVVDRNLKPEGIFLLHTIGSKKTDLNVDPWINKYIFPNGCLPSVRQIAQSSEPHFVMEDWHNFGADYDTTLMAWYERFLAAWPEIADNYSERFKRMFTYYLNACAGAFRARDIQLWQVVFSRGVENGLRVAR

SMILES	Ki [1]	Ki [2]
C[S+](C)C[C@H]1O[C@@H](n2cnc3c(N)ncnc32)[C@H](O)[C@@H]1O	2500 µM	
Nc1ncnc2c1ncn2[C@@H]1O[C@H](C[S+]([O-])CC[C@H](N)C(=O)O)[C@@H](O)[C@H]1O (stereo partly drawn) [2-Amino-4-[(2S,3S,4R,5R)-5-(6-amino-purin-9-yl)-3,4-dihydroxy-tetrahydro-furan-2-ylmethanesulfinyl]-butyric acid]	50 µM	30 µM
Nc1ncnc2c1ncn2[C@@H]1O[C@H](CS(=O)(=O)CC[C@H](N)C(=O)O)[C@@H](O)[C@H]1O [2-Amino-4-[(2S,3S,4R,5R)-5-(6-amino-purin-9-yl)-3,4-dihydroxy-tetrahydro-furan-2-ylmethanesulfonyl]-butyric acid]	100 µM	
Nc1ncnc2c1ncn2[C@@H]1O[C@H](CSCCC(N)C(=O)O)[C@@H](O)[C@H]1O (stereo partly drawn) [2-Amino-4-[(2S,3S,4R,5R)-5-(6-amino-purin-9-yl)-3,4-dihydroxy-tetrahydro-furan-2-ylmethylsulfanyl]-butyric acid]	30 µM	
C[S+]([O-])C[C@H]1O[C@@H](n2cnc3c(N)ncnc32)[C@H](O)[C@@H]1O (stereo partly drawn) [(2R,3R,4S,5S)-2-(6-Amino-purin-9-yl)-5-methanesulfinylmethyl-tetrahydro-furan-3,4-diol]	500 µM	
CS(=O)(=O)C[C@H]1O[C@@H](n2cnc3c(N)ncnc32)[C@H](O)[C@@H]1O [(2R,3R,4S,5S)-2-(6-Amino-purin-9-yl)-5-methanesulfonylmethyl-tetrahydro-furan-3,4-diol]	220 µM	
CSC[C@H]1O[C@@H](n2cnc3c(N)ncnc32)[C@H](O)[C@@H]1O [(2R,3R,4S,5S)-2-(6-aminopurin-9-yl)-5-(methylsulfanylmethyl)oxolane-3,4-diol]	1500 µM	
Nc1ncnc2c1ncn2[C@@H]1O[C@H](CSCC[C@H](N)C(=O)O)[C@@H](O)[C@H]1O [AdoHcy]	150 µM	
